Holding throughout (assay): relative viability (nuclei count vs DMSO), 5 days (fraction); higher = more cells survive
Compound in the assay “Mirin + Navitoclax”: N=C1NC(=O)/C(=C/c2ccc(O)cc2)S1 [Mirin] + CC1(C)CCC(c2ccc(Cl)cc2)=C(CN2CCN(c3ccc(C(=O)NS(=O)(=O)c4ccc(N[C@H](CCN5CCOCC5)CSc5ccccc5)c(S(=O)(=O)C(F)(F)F)c4)cc3)CC2)C1 [Navitoclax] (partner 0.5 µM)
The procedure, abridged:
(§1)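 Each reported value is a median over duplicate plates. It expresses relative viability: treated-well nuclei count divided by vehicle-well nuclei count. Lung cancer cell lines in 1536-well plates were dosed by pin tool a day after seeding, alone with one drug or with a fixed anchor-drug dose plus five library-drug doses (not always all listed) in √10 steps, and nuclei were counted after 5 days.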

Compound in assay [1]: CCC1=CN=CN=C1N2CCN(CC2)CC3=NC4=C(N3)C=C(C=C4)C(F)(F)F + CC(=O)Nc1cccc(-n2c(=O)n(C3CC3)c(=O)c3c(Nc4ccc(I)cc4F)n(C)c(=O)c(C)c32)c1 [Trametinib] (partner 0.02 µM)
An outline of the steps: as §1

Compound in the assay “Mirin + Phenformin”: N=C1NC(=O)/C(=C/c2ccc(O)cc2)S1 [Mirin] + N=C(N)NC(=N)NCCc1ccccc1 [Phenformin] (partner 250 µM)
An outline of the steps: as §1

Compound in the assay “Mirin + Olaparib”: N=C1NC(=O)/C(=C/c2ccc(O)cc2)S1 [Mirin] + O=C(c1cc(Cc2n[nH]c(=O)c3ccccc23)ccc1F)N1CCN(C(=O)C2CC2)CC1 [Olaparib] (partner 8 µM)
The procedure, abridged:
as §1

Consider LXF-289, for which the relative viability with Mirin + Navitoclax (first compound 0.25 µM) was found to be 0.934; with Mirin + Navitoclax (first compound 0.7906 µM), 0.986; in the assay with Mirin + Navitoclax (first compound 2.5 µM), 0.97; with Mirin + Navitoclax (first compound 7.906 µM), 1.01; in the assay with Mirin + Navitoclax (first compound 25 µM), 1.13; in assay [1] (first compound 0.04 µM), 0.709. The relative viability in assay [1] (first compound 0.1265 µM) is 0.696; in assay [1] (first compound 0.4 µM), 0.659; in assay [1] (first compound 1.265 µM), 0.684; in assay [1] (first compound 4 µM), 0.67; with Mirin + Phenformin (first compound 0.25 µM), 0.543; in the assay with Mirin + Phenformin (first compound 0.7906 µM) it was 0.589. Besides, the relative viability is 0.546 with Mirin + Phenformin (first compound 2.5 µM); 0.511 with Mirin + Phenformin (first compound 7.906 µM); 0.548 in the assay with Mirin + Phenformin (first compound 25 µM); 1.04 in the assay with Mirin + Olaparib (first compound 0.25 µM); 1.04 in the assay with Mirin + Olaparib (first compound 0.7906 µM); 1 with Mirin + Olaparib (first compound 2.5 µM). In addition, the relative viability with Mirin + Olaparib (first compound 7.906 µM) stood at 1.04; in the assay with Mirin + Olaparib (first compound 25 µM) it was 0.975.

In the case of NCI-H23, the relative viability worked out at 0.941 with Mirin + Navitoclax (first compound 0.25 µM); 0.783 with Mirin + Navitoclax (first compound 2.5 µM); 0.682 in the assay with Mirin + Navitoclax (first compound 7.906 µM); 0.71 with Mirin + Navitoclax (first compound 25 µM); 0.405 in assay [1] (first compound 0.04 µM); 0.409 in assay [1] (first compound 0.1265 µM). Further, the relative viability in assay [1] (first compound 0.4 µM) was 0.396; in assay [1] (first compound 1.265 µM), 0.375; in assay [1] (first compound 4 µM), 0.385; with Mirin + Phenformin (first compound 0.25 µM) it was 0.817; in the assay with Mirin + Phenformin (first compound 2.5 µM), 0.747; in the assay with Mirin + Phenformin (first compound 7.906 µM) it was 0.753. Further, the relative viability with Mirin + Phenformin (first compound 25 µM) turned out to be 0.862; with Mirin + Olaparib (first compound 0.25 µM), 0.317; in the assay with Mirin + Olaparib (first compound 2.5 µM) it was 0.342; in the assay with Mirin + Olaparib (first compound 7.906 µM) it was 0.248; with Mirin + Olaparib (first compound 25 µM) it was 0.377.

As for NCI-H322M, the relative viability came to 1.26 in the assay with Mirin + Navitoclax (first compound 0.25 µM); 1.28 with Mirin + Navitoclax (first compound 0.7906 µM); 1.25 with Mirin + Navitoclax (first compound 2.5 µM); 1.22 with Mirin + Navitoclax (first compound 7.906 µM); 1.31 with Mirin + Navitoclax (first compound 25 µM); 0.483 in assay [1] (first compound 0.04 µM). In addition, the relative viability in assay [1] (first compound 0.1265 µM) was found to be 0.611; in assay [1] (first compound 0.4 µM), 0.537; in assay [1] (first compound 1.265 µM) it was 0.458; in assay [1] (first compound 4 µM), 0.62; with Mirin + Phenformin (first compound 0.25 µM), 0.792; in the assay with Mirin + Phenformin (first compound 0.7906 µM), 0.623. In addition, the relative viability with Mirin + Phenformin (first compound 2.5 µM) was 0.777; with Mirin + Phenformin (first compound 7.906 µM), 0.963; with Mirin + Phenformin (first compound 25 µM), 0.628; with Mirin + Olaparib (first compound 0.25 µM), 0.81; in the assay with Mirin + Olaparib (first compound 0.7906 µM), 0.816; with Mirin + Olaparib (first compound 2.5 µM), 0.726. In addition, the relative viability amounted to 0.712 with Mirin + Olaparib (first compound 7.906 µM) and 0.583 in the assay with Mirin + Olaparib (first compound 25 µM).

Take NCI-H441: the relative viability came to 0.49 with Mirin + Navitoclax (first compound 0.25 µM); 0.802 with Mirin + Navitoclax (first compound 0.7906 µM); 0.571 with Mirin + Navitoclax (first compound 2.5 µM); 0.447 with Mirin + Navitoclax (first compound 7.906 µM); 0.483 with Mirin + Navitoclax (first compound 25 µM); 0.482 in assay [1] (first compound 0.04 µM). For the same cell line, the relative viability in assay [1] (first compound 0.1265 µM) came to 0.452; in assay [1] (first compound 0.4 µM), 0.464; in assay [1] (first compound 1.265 µM) it was 0.37; in assay [1] (first compound 4 µM) it was 0.499; in the assay with Mirin + Phenformin (first compound 0.25 µM) it was 0.763; with Mirin + Phenformin (first compound 0.7906 µM), 0.876. The relative viability turned out to be 0.782 in the assay with Mirin + Phenformin (first compound 2.5 µM); 0.718 in the assay with Mirin + Phenformin (first compound 7.906 µM); 0.628 with Mirin + Phenformin (first compound 25 µM); 0.468 in the assay with Mirin + Olaparib (first compound 0.25 µM); 0.582 with Mirin + Olaparib (first compound 0.7906 µM); 0.674 with Mirin + Olaparib (first compound 2.5 µM). Further, the relative viability in the assay with Mirin + Olaparib (first compound 7.906 µM) came to 0.412; with Mirin + Olaparib (first compound 25 µM), 0.401.

With NCI-H460, the relative viability with Mirin + Navitoclax (first compound 0.25 µM) is 1.18; with Mirin + Navitoclax (first compound 0.7906 µM), 1.27; with Mirin + Navitoclax (first compound 2.5 µM) it was 1.19; with Mirin + Navitoclax (first compound 7.906 µM), 1.06; in the assay with Mirin + Navitoclax (first compound 25 µM) it was 0.913; in assay [1] (first compound 0.04 µM) it was 0.152. Besides, the relative viability amounted to 0.203 in assay [1] (first compound 0.1265 µM); 0.11 in assay [1] (first compound 0.4 µM); 0.0864 in assay [1] (first compound 1.265 µM); 0.0963 in assay [1] (first compound 4 µM); 0.551 with Mirin + Phenformin (first compound 0.25 µM); 0.485 in the assay with Mirin + Phenformin (first compound 0.7906 µM). Besides, the relative viability in the assay with Mirin + Phenformin (first compound 2.5 µM) is 0.5; in the assay with Mirin + Phenformin (first compound 7.906 µM), 0.522; in the assay with Mirin + Phenformin (first compound 25 µM), 0.623; in the assay with Mirin + Olaparib (first compound 0.25 µM), 0.505; in the assay with Mirin + Olaparib (first compound 0.7906 µM) it was 0.447; with Mirin + Olaparib (first compound 2.5 µM), 0.438. The relative viability in the assay with Mirin + Olaparib (first compound 7.906 µM) worked out at 0.413; with Mirin + Olaparib (first compound 25 µM) it was 0.557.

On to NCI-H520, for which the relative viability with Mirin + Navitoclax (first compound 0.25 µM) came to 1.03; with Mirin + Navitoclax (first compound 0.7906 µM), 1.11; with Mirin + Navitoclax (first compound 2.5 µM) it was 1.35; in the assay with Mirin + Navitoclax (first compound 7.906 µM) it was 0.829; with Mirin + Navitoclax (first compound 25 µM), 0.676; in assay [1] (first compound 0.04 µM), 0.784. In addition, the relative viability in assay [1] (first compound 0.1265 µM) is 0.583; in assay [1] (first compound 0.4 µM), 0.582; in assay [1] (first compound 1.265 µM), 0.582; in assay [1] (first compound 4 µM) it was 0.593; in the assay with Mirin + Phenformin (first compound 0.25 µM) it was 0.751; with Mirin + Phenformin (first compound 0.7906 µM), 0.459. In addition, the relative viability stood at 0.701 in the assay with Mirin + Phenformin (first compound 2.5 µM); 0.338 with Mirin + Phenformin (first compound 7.906 µM); 0.356 in the assay with Mirin + Phenformin (first compound 25 µM); 0.311 with Mirin + Olaparib (first compound 0.25 µM); 0.336 with Mirin + Olaparib (first compound 0.7906 µM); 0.307 with Mirin + Olaparib (first compound 2.5 µM). Moreover, the relative viability with Mirin + Olaparib (first compound 7.906 µM) came out at 0.349; in the assay with Mirin + Olaparib (first compound 25 µM), 0.187.

These data come from the supplement of paper PMC10307832.
